Legend:
[1] = Antiviral activity against HAV HM175 infected in African green monkey Vero cells assessed as inhibition of virus-induced cytopathic effect at MNCC measured after 48 hrs by crystal violet staining based assay relative to control; assay type: functional, Human hepatitis A virus, Hu/Australia/HM175/1976
[2] = Antiviral activity against HAV HM175 infected in African green monkey Vero cells assessed as inhibition of virus-induced cytopathic effect measured after 48 hrs by crystal violet staining based assay; assay type: functional, Human hepatitis A virus, Hu/Australia/HM175/1976
[3] = Cytotoxicity against African green monkey Vero cells measured after 48 hrs by crystal violet staining based colorimetric method; assay type: cell-based; settings: chlorocebus sabaeus; for MNTC at 48 h: read-out: MNCC
[4] = Selectivity index, ratio of CC50 for African green monkey Vero cells to EC50 for HAV HM175 infected in African green monkey Vero cells; assay type: toxicity; settings: for selectivity ratio: Vero cells, read-out: Ratio CC50/EC50; for Ratio CC50/EC50: vero
Hepatovirus A [5] = test: Inhibition of HAV protease 3C expressed in Escherichia coli BL21(DE3) pLysS at 1 uM using Dabcyl-GLRTQSND (edans) G as substrate preincubated for 3 mins before enzyme addition by fluorescence method relative to control
Hepatovirus A [6] = test: Inhibition of HAV protease 3C expressed in Escherichia coli BL21(DE3) pLysS at 10 uM using Dabcyl-GLRTQSND (edans) G as substrate preincubated for 3 mins before enzyme addition by fluorescence method relative to control
[7] = Inhibition of HAV protease 3C expressed in Escherichia coli BL21(DE3) pLysS using Dabcyl-GLRTQSND (edans) G as substrate preincubated for 3 mins before enzyme addition by fluorescence method; parameters: species or system Hepatovirus A
Hepatovirus A [8] = test: Inhibition of HAV protease 3C expressed in Escherichia coli BL21(DE3) pLysS at 0.1 uM using Dabcyl-GLRTQSND (edans) G as substrate preincubated for 3 mins before enzyme addition by fluorescence method relative to control
Hepatovirus A [9] = test: Inhibition of HAV protease 3C expressed in Escherichia coli BL21(DE3) pLysS at 100 uM using Dabcyl-GLRTQSND (edans) G as substrate preincubated for 3 mins before enzyme addition by fluorescence method relative to control
[10] = Hepatovirus A, Hu/Australia/HM175/1976, Vero, 48 h, read-out: EC50

SMILES: NNc1nc2cc3ccccc3cc2c(=O)n1CCc1ccccc1
- inhibition (INH) [1]: 79.81%
- EC50 [2, 10]: 18 µM
- CC50 at 48 h [3]: 569 µM
- MNTC at 48 h [3]: 31.2 µg/mL
- selectivity ratio [4]: 31.6
- inhibition (Hepatovirus A [5]): 33%
- inhibition (Hepatovirus A [6]): 51.5%
- IC50 [7]: 5.92 to 18 µM
- inhibition (Hepatovirus A [8]): 13.3%
- inhibition (Hepatovirus A [9]): 78.8%

SMILES: N#Cc1ccc(CSc2nc3cc4ccccc4cc3c(=O)n2CCc2ccccc2)cc1
- inhibition (INH) [1]: 2.88%
- EC50 ([2]; vero): Not Active
- CC50 at 48 h [3]: 86.3 µg/mL
- MNTC at 48 h [3]: 15.6 µg/mL
- Ratio CC50/EC50 [4]: Not Active

SMILES: C=CCSc1nc2cc3ccccc3cc2c(=O)n1CCc1ccccc1
- inhibition (INH) [1]: 3.54%
- EC50 ([2]; vero): Not Active
- CC50 at 48 h [3]: 164 µg/mL
- MNTC at 48 h [3]: 62.5 µg/mL
- Ratio CC50/EC50 [4]: Not Active

SMILES: N#Cc1ccccc1CSc1nc2cc3ccccc3cc2c(=O)n1Cc1ccccc1
- inhibition (INH) [1]: 39.58%
- EC50 [2, 10]: 43.7 µM
- CC50 at 48 h [3]: 53.5 µM
- MNTC at 48 h [3]: 7.8 µg/mL
- selectivity ratio [4]: 1.23

SMILES: N#Cc1cccc(CSc2nc3cc4ccccc4cc3c(=O)n2CCc2ccccc2)c1
- inhibition (INH) [1]: 23.49%
- EC50 [2, 10]: 130 µM
- CC50 at 48 h [3]: 163 µM
- MNTC at 48 h [3]: 31.2 µg/mL
- selectivity ratio [4]: 1.25

SMILES: COc1cccc(CSc2nc3cc4ccccc4cc3c(=O)n2CCc2ccccc2)c1
- inhibition (INH) [1]: 54.32%
- EC50 [2, 10]: 61.7 µM
- CC50 at 48 h [3]: 145 µM
- MNTC at 48 h [3]: 31.2 µg/mL
- selectivity ratio [4]: 2.36

SMILES: Cc1cccc(CSc2nc3cc4ccccc4cc3c(=O)n2Cc2ccccc2)c1
- inhibition (INH) [1]: 58.76%
- EC50 [2, 10]: 90.3 µM
- CC50 at 48 h [3]: 506 µM
- MNTC at 48 h [3]: 62.5 µg/mL
- selectivity ratio [4]: 5.61

SMILES: O=c1c2cc3ccccc3cc2nc(SCc2ccccc2)n1Cc1ccccc1
- inhibition (INH) [1]: 42.31%
- EC50 [2, 10]: 196 µM
- CC50 at 48 h [3]: 419 µM
- MNTC at 48 h [3]: 62.5 µg/mL
- selectivity ratio [4]: 2.14

SMILES: NC12CC3CC(CC(C3)C1)C2 [AMANTADINE]
- EC50 [2, 10]: 37.3 µM
- CC50 at 48 h [3]: 2020 µM
- selectivity ratio [4]: 54.1
- IC50 [7]: 37.2 µM

SMILES: Cc1ccccc1CSc1nc2cc3ccccc3cc2c(=O)n1CCc1ccccc1
- inhibition (INH) [1]: 38.09%
- EC50 [2, 10]: 69.8 µM
- CC50 at 48 h [3]: 86.8 µM
- MNTC at 48 h [3]: 15.6 µg/mL
- selectivity ratio [4]: 1.24

SMILES: O=c1c2cc3ccccc3cc2nc(SCc2ccc(Cl)cc2)n1CCc1ccccc1
- inhibition (INH) [1]: 41.26%
- EC50 [2, 10]: 57.9 µM
- CC50 at 48 h [3]: 101 µM
- MNTC at 48 h [3]: 15.6 µg/mL
- selectivity ratio [4]: 1.75

SMILES: N#Cc1ccc(CSc2nc3cc4ccccc4cc3c(=O)n2Cc2ccccc2)cc1
- inhibition (INH) [1]: 23.82%
- EC50 [2, 10]: 152 µM
- CC50 at 48 h [3]: 206 µM
- MNTC at 48 h [3]: 31.2 µg/mL
- selectivity ratio [4]: 1.35

SMILES: N#Cc1cccc(CSc2nc3cc4ccccc4cc3c(=O)n2Cc2ccccc2)c1
- inhibition (INH) [1]: 41.94%
- EC50 [2, 10]: 164 µM
- CC50 at 48 h [3]: 380 µM
- MNTC at 48 h [3]: 62.5 µg/mL
- selectivity ratio [4]: 2.32

SMILES: NNc1nc2cc3ccccc3cc2c(=O)n1Cc1ccccc1
- inhibition (INH) [1]: 63.58%
- EC50 [2, 10]: 27.6 µM
- CC50 at 48 h [3]: 291 µM
- MNTC at 48 h [3]: 15.6 µg/mL
- selectivity ratio [4]: 10.5
- inhibition (Hepatovirus A [5]): 16.3%
- inhibition (Hepatovirus A [6]): 31.1%
- IC50 [7]: 22.4 to 27.6 µM
- inhibition (Hepatovirus A [8]): 2.65%
- inhibition (Hepatovirus A [9]): 73.1%

SMILES: O=c1c2cc3ccccc3cc2[nH]c(=S)n1Cc1ccccc1
- inhibition (INH) [1]: 67.18%
- EC50 [2, 10]: 36.7 µM
- CC50 at 48 h [3]: 180 µM
- MNTC at 48 h [3]: 15.6 µg/mL
- selectivity ratio [4]: 4.91
- inhibition (Hepatovirus A [5]): 37.5%
- inhibition (Hepatovirus A [6]): 64.8%
- IC50 [7]: 3.3 to 36.7 µM
- inhibition (Hepatovirus A [8]): 9.85%
- inhibition (Hepatovirus A [9]): 86%

SMILES: COc1cccc(CSc2nc3cc4ccccc4cc3c(=O)n2Cc2ccccc2)c1
- inhibition (INH) [1]: 24.48%
- EC50 [2, 10]: 67.8 µM
- CC50 at 48 h [3]: 82.7 µM
- MNTC at 48 h [3]: 7.8 µg/mL
- selectivity ratio [4]: 1.22

SMILES: O=c1c2cc3ccccc3cc2nc(SCc2ccc([N+](=O)[O-])cc2)n1Cc1ccccc1
- inhibition (INH) [1]: 0%
- EC50 ([2]; vero): Not Active
- CC50 at 48 h [3]: 48.2 µg/mL
- MNTC at 48 h [3]: 31.2 µg/mL
- Ratio CC50/EC50 [4]: Not Active

SMILES: O=c1c2cc3ccccc3cc2[nH]c(=S)n1CCc1ccccc1
- inhibition (INH) [1]: 46.36%
- EC50 [2, 10]: 128 µM
- CC50 at 48 h [3]: 391 µM
- MNTC at 48 h [3]: 31.2 µg/mL
- selectivity ratio [4]: 3.06
